Patent publication US20050261162A1, “Pharmaceutical composition for preventing and treating cancer and treating an inflammation” (priority 2001, published 2005)
“And” between values parts separate entries of the source, which are not always exact repeats. Identical values can stand only once.

How the values were obtained:
[1] = tested on: Salmonella typhimurium TA102 strain; assay: Antimutagenic effect on mutagenesis induced by reactive oxygen species (His+ revertant colonies); format: cell-based; details: compared with curcumin as positive control
Protocol: The antimutagenic effect of xanthorrhizol was examined in Salmonella typhimurium TA102 strain including mutagenesis with reactive oxygen species (Levin, D. E., et al., Proc. Natl. Acad. Sci. U. S. A., 79;7445-7449, 1982).
Salmonella typhimurium TA102 strain was cultured in Oxoid nutrient broth medium for 11 hours. 100 μl of above-cultured medium was added to 600 μl of the reaction mixture containing tert-butylhydroperoxide (100 μg/plate) or hydrogen peroxide (50 μg/plate) with or without xanthorrhizol and incubated for 30 minutes at 37° C. Curcumin was added instead of xanthorrhizol in positive control. The concentration of xanthorrhizol or curcumin was 0, 10, 20, 40, 60 nmol/plate and 2, 4, 8, 10, 20, 50 nmol/plate respectively in experiment to examine the inhibitory effect of xanthorrhizol against tert-butylhydroperoxide and hydrogen peroxide-induced mutagenesis. The reaction mixture was transferred to 2 ml of top agar solution containing 0.5 mM of histidine and biotin and was homogeneously mixed. It was poured to minimal glucose plate. The plates were incubated for 48 hours at 37° C. and the number of His+ revertant colonies counted.

COX-2 = biological target: T1, COX-2 (Mus musculus, UniProt Q05769); assay: Inhibition of LPS-induced COX-2 activity (PGE2 production) in RAW264.7 macrophage cells; format: cell-based; details: LPS 1 μg/ml, 16 hr
T1 construct: endogenous in cells; host or cells: RAW264.7 macrophage cells, LPS-stimulated
T1 sequence (Q05769 18-604): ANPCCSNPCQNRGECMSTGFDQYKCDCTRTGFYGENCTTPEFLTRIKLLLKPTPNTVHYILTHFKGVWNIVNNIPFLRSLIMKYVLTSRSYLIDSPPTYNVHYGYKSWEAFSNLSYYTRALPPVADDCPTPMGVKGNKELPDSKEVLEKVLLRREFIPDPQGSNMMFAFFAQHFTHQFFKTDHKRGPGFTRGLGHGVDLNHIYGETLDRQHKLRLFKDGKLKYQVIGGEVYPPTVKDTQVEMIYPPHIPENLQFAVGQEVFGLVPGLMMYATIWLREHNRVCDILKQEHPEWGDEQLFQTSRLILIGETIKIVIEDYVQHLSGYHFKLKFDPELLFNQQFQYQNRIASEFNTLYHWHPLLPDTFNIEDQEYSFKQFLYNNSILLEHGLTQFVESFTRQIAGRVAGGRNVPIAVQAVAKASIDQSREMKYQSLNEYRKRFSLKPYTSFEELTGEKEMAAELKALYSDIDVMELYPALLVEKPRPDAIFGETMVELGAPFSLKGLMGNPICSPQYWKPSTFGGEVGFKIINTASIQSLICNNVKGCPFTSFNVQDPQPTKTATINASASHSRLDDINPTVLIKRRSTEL
Protocol: If a cell was treated with LPS, the activity of COX-2 increases. On the basis of this fact, to investigate the effect of xanthorrhizol on LPS-induced COX-2 activity, the quantity of PGE2 released from cells was measured as follows.
RAW264.7 macrophage cells were maintained in DMEM supplemented with penicillin-streptomycin and 10% FBS at 37° C., in 5% CO2 of humidified air. The cells (10×10^5 cells/ml, 200 μl) were allowed to adhere for 4 hr in the presence of aspirin (500 μM) in a 96-well culture plate to inhibit irreversibly COX activity in cells, washed 3 times with media, and then incubated in the fresh medium with 1 μg/ml of LPS. Xanthorrhizol was simultaneously added to each well. After an additional 16 hr incubation, the media were recovered and analyzed by PGE2 enzyme immunometric assay. The medium recovered from each well was added to each well attached anti-PGE2 antibody (Amersham Life Science, Arlington Heights, Ill.) with PGE2-acetylcholineesterase tracer, incubated for 18 hr at room temperature and then washed five times with 0.05% Tween 20-phosphate buffer solution. […] Absorbance at 405 nm was measured. PGE2 in each medium treated with xanthorrhizol was quantified in calibration curve graphed with standard PGE2. […] The percentage inhibition was expressed as [1-(PGE2 level of sample/PGE2 level of vehicle treated−control)]×100.

IκBα = assay: Inhibition of IκB degradation in mouse skin treated with TPA (western blotting); format: in vivo; details: mouse skin cytoplasmic extract, topical pretreatment before TPA
Protocol: To examine the effect of xanthorrhizol on IκB, the level of IκB was measured in mouse skin. Cytoplasmic extract was prepared as follows. The mouse skin tissue obtained by the same method of embodiment 4 was homogenized in hypotonic buffer solution [10 mM HEPES, pH 7.8, 10 mM KCl, 2 mM MgCl2, 1 mM DTT, 0.1 mM EDTA, 0.1 mM phenylmethylsulfonyl fluoride (PMSF)]. To the homogenates was added 125 μl of 10% Nondiet P-40 solution and the mixture was then centrifuged for 30 sec. The supernatant (cytoplasmic extract) was electrophoresized on the 12% SDS-polyacrylamide gel. Blot was transferred from SDS-polyacrylamide gel to PVDF membrane, blocked with 5% fat-free dry milk-PBST buffer for 2 hr at room temperature and then washed in PBST buffer. Membrane was incubated for 2 hr at room temperature with rabbit IκBα polyclonal antibody (Santa Cruz Product, Santa Cruz, Calif., USA). Blot was rinsed with PBST, incubated with anti-rabbit horseradish peroxidase-conjugated secondary antibody (Santa Crus product, Santa Cruz, Calif., USA) and again washed 3 times in PBST buffer for 5 min. Transferred protein was visualized with an ECL detection kit.

HL-60 cells = assay: Flow cytometric cell cycle analysis of HL-60 cells (sub-G1 phase); format: cell-based, Human; details: 24 hours, control 20%
Protocol: The effect of xanthorrhizol on cell cycle was examined by flow cytometric analysis. HL-60 cells were cultured in serum-free RPMI 1640 medium for 48 hr to stop cell cycle at GO phase. The medium was exchanged to 10% FBS-RPMI 1640 media with 0, 20, 60 μM of xanthorrhizol, respectively. 24 hours later, the cells obtained after centrifugation were fixed in 70% ethanol at −20° C. overnight. The cells were washed twice again with PBS, and incubated with 100 U/ml of Rnase at 37° C. for 1 hr. The cell pellet was resuspended in propidium iodide solution after washing twice with PBS. The cells were analyzed by flow cytometry and the result was represented at FIG. 11.

CC(C)=CCC[C@@H](C)c1ccc(C)c(O)c1 [xanthorrhizol]
inhibitory effect against mutagenesis induced by hydrogen peroxide ([1]; hydrogen peroxide 50 μg/plate): more excellent inhibitory effect
inhibitory effect against mutagenesis induced by tert-butylhydroperoxide ([1]; tert-butylhydroperoxide 100 μg/plate): more excellent inhibitory effect
IC50 (COX-2): 321 nM and 320 nM
percentage inhibition of LPS-induced PGE2 production (COX-2 activity) (COX-2; concentration of not less than 1 μg/ml): not less than 98%
degradation of IκBα induced by TPA (IκBα): inhibited by xanthorrhizol in a dose dependent manner
proportion of cells in sub-G1 phase (apoptosis peak) (HL-60 cells; 20 μM): 36%
proportion of cells in sub-G1 phase (apoptosis peak) (HL-60 cells; 60 μM): 76%
